From ChEMBL document CHEMBL5149994, “Anticancer potential of indirubins in medicinal chemistry: Biological activity, structural modification, and structure-activity relationship” (Eur J Med Chem, 2021)
Values after ≈ are worked out from the molar mass of the structure shown. Blank lines part the entries; values can stand above or below the molecule they belong to.

Legend:
[1] = biological target: Cyclin-dependent kinase 5/CDK5 activator 1 (Homo sapiens, UniProt Q00535); test: Inhibition of CDK5/p35 (unknown origin); format: protein-complex assay
[2] = Inhibition of starfish oocyte CDK1/Cyclin B using histone H1 as substrate incubated for 10 mins in presence of [gamma-32P]ATP by scintillation counter analysis; design: species or system Marthasterias glacialis
MCF7 [3] = test: Cytotoxicity against human MCF7 cells assessed as cell growth inhibition measured after 4 days by crystal violet staining based assay; format: functional; conditions: MCF7, 96 h
[4] = Inhibition of GST-tagged recombinant human CDK2/cyclin E expressed in Sf9 cells incubated for 10 mins in presence of [33P]-gamma ATP and ATP by scintillation counter method
[5] = Kinetic solubility of compound in PBS at pH 7.4; format: physicochemical; conditions: read-out: Kinetic_solubility
MV4-11 = test: Cytotoxicity in human MV4-11 cells assessed as cell growth inhibition incubated for 48 hrs by propidium iodide staining based flow cytometry assay; format: functional
CH1 = test: Antiproliferative activity against human CH1 cells assessed as cell growth inhibition measured after 96 hrs by MTT assay; format: functional, cell-based; conditions: CH1, 96 h
SW480 [6] = test: Antiproliferative activity against human SW480 cells assessed as cell growth inhibition measured after 96 hrs by MTT assay; format: functional, cell-based; conditions: SW480, 96 h
A549 = test: Antiproliferative activity against human A549 cells assessed as cell growth inhibition measured after 96 hrs by MTT assay; format: functional, cell-based; conditions: A549, 96 h
SW480 [7] = test: Antiproliferative activity against human SW480 cells assessed as cell growth inhibition; format: functional, cell-based
[8] = Antiproliferative activity against human Lu1 cells assessed as cell growth inhibition; format: functional, cell-based
HepG2 [9] = test: Antiproliferative activity against human HepG2 cells assessed as cell growth inhibition; format: functional, cell-based
HL-60 [10] = test: Antiproliferative activity against human HL-60 cells assessed as cell growth inhibition; format: functional, cell-based
NCI-H157 = test: Cytotoxicity against human NCI-H157 cells assessed as cell growth inhibition at 100 uM by calcein-AM staining based flow cytometry analysis relative to control; format: functional; design: scale not given: the % may be the effect or the level left
MCF7 [11] = test: Cytotoxicity against human MCF7 cells assessed as cell growth inhibition; format: functional, cell-based
SK-MEL-103 = test: Cytotoxicity against human SK-MEL-103 cells assessed as cell growth inhibition measured after 24 hrs by WST-1 assay; format: functional, cell-based; conditions: SK-MEL-103, 24 h
SK-MEL-147 = test: Cytotoxicity against human SK-MEL-147 cells assessed as cell growth inhibition measured after 24 hrs by WST-1 assay; format: functional, cell-based; conditions: SK-MEL-147, 24 h
SK-MEL19 = test: Cytotoxicity against human SK-MEL19 cells assessed as cell growth inhibition measured after 24 hrs by WST-1 assay; format: functional, cell-based; conditions: SK-MEL19, 24 h
[12] = Cytotoxicity against human SK-MEL-29 cells assessed as cell growth inhibition measured after 24 hrs by WST-1 assay; format: functional, cell-based; conditions: SK-MEL-29, 24 h
U-87 MG = test: Cytotoxicity against human U87 cells assessed as cell growth inhibition measured after 24 hrs by MTT assay
HL-60 [13] = test: Cytotoxicity against human HL-60 cells assessed as cell growth inhibition measured after 24 hrs by MTT assay; conditions: HL-60, 24 h, read-out: LC50
[14] = Inhibition of CDK2/cyclin E (unknown origin); design: species or system Homo sapiens
U-118-MG = test: cells; conditions: Homo sapiens, 24 h
Description: Cytotoxicity against human U-118-MG cells assessed as cell growth inhibition measured after 24 hrs by MTT assay

HeLa = test: Cytotoxicity against human HeLa cells assessed as cell growth inhibition measured after 24 hrs by SRB assay
DU-145 [15] = test: Antiproliferative activity against human DU-145 cells assessed as cell growth inhibition by MTT assay; format: functional, cell-based
CDK2/Cyclin A2 = CDK2/Cyclin A2 (Homo sapiens, UniProt P24941); test: Inhibition of CDK2/cyclin A (unknown origin); format: protein-complex assay
SW480 [16] = test: Antiproliferative activity against human SW480 cells assessed as cell growth inhibition measured after 72 hrs by MTT assay; format: functional, cell-based; conditions: SW480, 72 h
HL-60 [17] = test: Antiproliferative activity against human HL-60 cells assessed as cell growth inhibition measured after 72 hrs by MTT assay; format: functional, cell-based; conditions: HL-60, 72 h
[18] = Antiproliferative activity against human Lu1 cells assessed as cell growth inhibition measured after 72 hrs by MTT assay; format: functional, cell-based; conditions: Lu1, 72 h
HepG2 [19] = test: Antiproliferative activity against human HepG2 cells assessed as cell growth inhibition measured after 72 hrs by MTT assay; format: functional, cell-based; conditions: HepG2, 72 h
HL-60 [20] = test: Cytotoxicity against human HL-60 cells assessed as cell growth inhibition; format: functional, cell-based
MCF7 [21] = test: Cytotoxicity against human MCF7 cells assessed as cell growth inhibition by MTT assay; format: functional, cell-based
LNCaP = test: Cytotoxicity against human LNCaP cells assessed as cell growth inhibition by MTT assay; format: functional, cell-based
LoVo = test: Cytotoxicity against human LoVo cells assessed as cell growth inhibition by MTT assay; format: functional, cell-based
PC-3 = test: Cytotoxicity against human PC-3 cells assessed as cell growth inhibition by MTT assay; format: functional, cell-based
DU-145 [22] = test: Cytotoxicity against human DU-145 cells assessed as cell growth inhibition by MTT assay; format: functional, cell-based
[23] = Cytotoxicity against rat RK3E cells harboring RAS assessed as cell growth inhibition measured after 24 hrs by MTT assay; format: toxicity, cell-based

Sequence of Cyclin-dependent kinase 5/CDK5 activator 1 (Q00535 whole entry): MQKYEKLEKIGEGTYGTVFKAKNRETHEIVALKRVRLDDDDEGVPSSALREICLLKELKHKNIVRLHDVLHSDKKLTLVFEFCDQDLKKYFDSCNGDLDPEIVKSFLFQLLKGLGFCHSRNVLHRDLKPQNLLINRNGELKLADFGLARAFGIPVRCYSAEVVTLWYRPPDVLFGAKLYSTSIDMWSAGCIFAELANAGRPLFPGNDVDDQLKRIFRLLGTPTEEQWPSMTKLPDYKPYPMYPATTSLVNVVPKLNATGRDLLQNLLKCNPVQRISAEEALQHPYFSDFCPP
Sequence of Cyclin-dependent kinase 5/CDK5 activator 1 (Q15078 whole entry, further chain): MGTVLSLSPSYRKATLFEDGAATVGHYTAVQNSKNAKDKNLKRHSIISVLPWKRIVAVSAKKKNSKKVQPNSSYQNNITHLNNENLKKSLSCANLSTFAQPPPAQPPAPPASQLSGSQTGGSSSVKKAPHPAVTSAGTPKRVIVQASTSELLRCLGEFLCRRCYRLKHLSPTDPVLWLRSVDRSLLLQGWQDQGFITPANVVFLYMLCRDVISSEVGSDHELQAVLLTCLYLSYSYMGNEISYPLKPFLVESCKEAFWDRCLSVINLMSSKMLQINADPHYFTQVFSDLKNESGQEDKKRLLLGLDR

IC50 [1]: 0.065 µM
SMILES: O=C1Nc2ccc(S(=O)(=O)O)cc2/C1=C1/Nc2ccccc2C1=O
IC50 [2]: 0.055 µM

solubility kinetic [5]: 12 µg/mL (≈ 28.1 µM)
SMILES: CN(C)CCN(C)S(=O)(=O)c1ccc2c(c1)/C(=C1/Nc3ccccc3C1=O)C(=O)N2
IC50 (MCF7 [3]): < 0.1 µM
IC50 [4]: 0.01 µM

IC50 (SW480 [6]): 2.5 µM
IC50 (A549): 13 µM
SMILES: NCCO/N=C1/C(=C2/C(=O)Nc3ccccc32)Nc2ccc(O)cc21
IC50 (CH1): 1.3 µM

IC50 (SW480 [7]): 16.4 µM
IC50 (HepG2 [9]): 17.7 µM
IC50 (HL-60 [10]): 9.52 µM
SMILES: O=C1Nc2ccccc2/C1=C1/Nc2ccccc2/C1=N\OCC(O)CSc1nnc(Nc2ccccc2)s1 (stereo unspecified)
IC50 [8]: 16.9 µM

solubility kinetic [5]: > 40 µg/mL
SMILES: C=CCC1(O)/C(=C2/C(=O)Nc3ccc(S(=O)(=O)N(C)CCN(C)C)cc32)Nc2ccccc21 (stereo unspecified)
IC50 (MCF7 [3]): < 0.1 µM
IC50 [4]: 0.04 µM

solubility kinetic [5]: < 1 µg/mL
SMILES: CN(C)S(=O)(=O)c1ccc2c(c1)/C(=C1/Nc3ccccc3/C1=N\O)C(=O)N2
IC50 (MCF7 [3]): 0.4 µM
IC50 [4]: 0.04 µM

IC50 (DU-145 [15]): 40 µM
IC50 (CDK2/Cyclin A2): 1.2 µM
SMILES: CCN1C(=O)/C(=C2\Nc3ccccc3C2=O)c2cccnc21

solubility kinetic [5]: > 40 µg/mL
SMILES: CN(C)CCN(C)S(=O)(=O)c1ccc2c(c1)/C(=C1/Nc3ccccc3C1(C)O)C(=O)N2 (stereo unspecified)
IC50 (MCF7 [3]): < 0.1 µM
IC50 [4]: 0.07 µM

solubility kinetic [5]: < 1 µg/mL
SMILES: CN(C)S(=O)(=O)c1ccc2c(c1)/C(=C1/Nc3ccccc3C1=O)C(=O)N2
IC50 (MCF7 [3]): > 10 µM
IC50 [4]: 0.04 µM

IC50 (SW480 [16]): 2.54 µM
IC50 (HL-60 [17]): 0.98 µM
IC50 (HepG2 [19]): 2.01 µM
SMILES: CCOc1ccccc1/C=C/C(=O)c1ccc(OCCn2cc(CN3C(=O)/C(=C4\Nc5ccccc5\C4=N/O)c4ccccc43)nn2)cc1O
IC50 [18]: 1.3 µM

IC50 (DU-145 [15]): 8 µM
SMILES: CN1C(=O)/C(=C2\Nc3ccc(Cl)cc3C2=O)c2cccnc21

IC50 (SW480 [7]): 16 µM
IC50 (HepG2 [9]): 15.3 µM
IC50 (HL-60 [10]): 12 µM
SMILES: Cc1cccc(Nc2nnc(SCC(O)CO/N=C3/C(=C4/C(=O)Nc5ccccc54)Nc4ccccc43)s2)c1C (stereo unspecified)
IC50 [8]: 19.1 µM

The next lines start with the molecule.

SMILES: COC(=O)c1ccc2c(c1)/C(=C1/Nc3ccccc3/C1=N\O)C(=O)N2
GI50 (MV4-11): 0.0541 µM

SMILES: O=C1/C(=C2/C(=O)N([C@H]3O[C@H](CO)[C@@H](O)[C@H](O)[C@@H]3O)c3ccccc32)[Se]c2ccccc21
Activity (NCI-H157): 21.5%

SMILES: C[C@@H]1O[C@H](N2C(=O)/C(=C3\Nc4ccc(Cl)cc4C3=O)c3ccccc32)[C@H](O)[C@H](O)[C@H]1O
IC50 (MCF7 [11]): 6.96 µM

SMILES: C[C@@H]1O[C@H](N2C(=O)/C(=C3\Sc4ccccc4C3=O)c3ccccc32)[C@H](O)[C@H](O)[C@H]1O
IC50 (SK-MEL-103): 10.4 µM
IC50 (SK-MEL-147): 7.52 µM
IC50 (SK-MEL19): 12 µM
IC50 [12]: 6.29 µM

SMILES: O=C1/C(=C2/C(=O)N([C@H]3O[C@H](CO)[C@@H](O)[C@H](O)[C@@H]3O)c3ccccc32)Sc2ccccc21
IC50 (SK-MEL-103): 6.69 µM
IC50 (SK-MEL-147): 4.28 µM
IC50 (SK-MEL19): 5.81 µM
IC50 [12]: 3.96 µM

SMILES: O=C1Nc2ccccc2/C1=C1/Nc2ccccc2C1=O [INDIRUBIN]
IC50 (U-87 MG): 12.5 µM
CC50 (HL-60 [13]): 98.1 µg/mL (≈ 374 µM)
IC50 [14]: 7.5 µM
IC50 (U-118-MG): 12.5 µM
IC50 (HeLa): 40 µM

SMILES: CN(C)CCN1C(=O)/C(=C2\Nc3ccccc3C2=O)c2ccccc21
IC50 (HL-60 [20]): 4.45 µM

SMILES: CCCN1C(=O)/C(=C2\Nc3ccccc3\C2=N/O)c2ccccc21
IC50 (MCF7 [21]): 87.6 µM
IC50 (LNCaP): 77.1 µM
IC50 (LoVo): 67.5 µM

SMILES: CCN1C(=O)/C(=C2\Nc3ccccc3\C2=N/O)c2ccccc21
IC50 (PC-3): 13.4 µM
IC50 (MCF7 [21]): 6.72 µM
IC50 (LNCaP): 10.3 µM
IC50 (LoVo): 8.49 µM
IC50 (DU-145 [22]): 7.44 µM

SMILES: O=C1Nc2ccc([N+](=O)[O-])cc2/C1=C1/Nc2ccccc2/C1=N\O
IC50 at 24 h [23]: 1 µM
